From article PMC7321408, “One-Pot Multicomponent Synthesis and Bioevaluation of Tetrahydroquinoline Derivatives as Potential Antioxidants, α-Amylase Enzyme Inhibitors, Anti-Cancerous and Anti-Inflammatory Agents” (Molecules, 2020)

Assays:
[1] = Total reducing power (TRP) assay
Procedure: A TRP assay was carried out to evaluate the reducing potential of synthetic compounds. The method implicates reductones. These reductones are species with antioxidant potential that is believed to be due to their proton-donating capacity. […] The maximum value of reducing power was 104.7 ± 1.9 µg/AAE for SF5, followed by 103.18 ± 2.4 µg/AAE for SF7 and 84.57 ± 1.9 µg/AAE for SF12 (Figure 3 and Figure 4 (standard curve)).
The assay is based on the reduction of Fe^+3 to Fe^+2. The method described by Khan et al. was used with slight modifications. One hundred microliters of test samples (4 mg/mL DMSO) were taken in an Eppendrof tube and 200 μL of phosphate buffer (0.2 mol/L, pH 6.6) and 250 µL of 1% potassium ferricyanide (K3Fe CN)6) were added. This was allowed to incubate at 50 °C for 20 min. Later on, 200 μL of 10% trichloroacetic acid (TCA) was added to the mixture. The mixture was centrifuged at 3000 rpm at room temperature for 10 min. After centrifugation, 150 µL of supernatant were transferred to microplate with FeCl3 (50 μL, 0.1%) and the absorbance was taken at 630 nm. The results were calculated as µg AAE/mg.

raw macrophages = assay: MTT cytotoxicity against raw macrophages; format: cell-based, albino rats; settings: mean ± SEM, n = 3
Method in brief: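 Peritoneal macrophages from albino rats were treated for 24 h at 37 °C, 5% CO2 with test compounds at 100, 50, 10 and 1 µM or vehicle, from DMSO stocks. MTT was then added for 2 h, formazan dissolved in DMSO and absorbance read at 570 nm. % viability = blank-corrected sample over blank-corrected control ×100.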

[2] = tested on: carrageenan-induced paw edema; assay: Carrageenan-induced paw edema (in vivo anti-inflammatory activity); design: species or system BALB/C albino mice; unit not given beside the values; settings: 10 mg/kg, mice, n = 5
Procedure: At 7–8 weeks old, male BALB/C albino mice (29–35 g), were purchased from The National Institute of Health (NIH), Islamabad, Pakistan. Five animals were housed per group and placed in a controlled temperature and humidity-controlled room (22 °C and 66 ± 5%, respectively) in a 12 h light–dark cycle and provided with water and food ad libitum. Ethical approval was taken from the bio-ethical committee of Quaid-I-Azam University (Approval No. BEC-FBS-QAU2018-119) and all protocols were conducted following the Ethical Guide to the Code of Practice for the Housing and Care of Animals Act 1986 (ARRIVE (Animal Research: Reporting In Vivo Experiments) guidelines). The anti-inflammatory activity of the synthesized compounds was evaluated by using the carrageenan-induced rat paw edema assay. To determine the dose response of tetrahydroquinoline derivatives, animals were first given a dose of 0.1, 1 and 10 mg/kg against 100 µL carrageenan (1% solution in normal saline)/paw. Treatment was given 60 min before carrageenan injection. Readings were taken at 4 h post carrageenan injection. The in vivo anti-inflammatory activity was performed following the procedure described by Koksal, et al. in 2017. Paw edema was induced by injecting 100 µL of 1% sterile carrageenan solution into the right hind paw of mice. Synthesized compounds (10 mg/kg), vehicle (saline with 2% DMSO) and drug (acetylsalicylic acid, ASA 10 mg/kg) were administered to the mice orally by gastric intubation 60 min before injecting carrageenan into the right hind paw. The decrease in edema was measured by vernier calipers every 2 h.

[3] = Phosphomolybdenum-based total antioxidant capacity (TAC)
Procedure: In the presence of an antioxidant, the phosphomolybdate ion gets reduced and a green phosphate–molybdate complex is formed, which is analyzed spectrophotometrically.
The total antioxidant capacity was determined by using the phosphomolybdenum-based method. The method is based on the reduction of Mo (VI) to Mo (V), leading to the formation of a green-colored phosphate–molybdenum complex that gives absorption at 630 nm. In 96-well plates, 20 µL of the sample was added with 180 µL TAC reagents in it and incubated at 95 °C for 90 min in a water bath and cooled at room temperature. The results were calculated as µg AAE/mg.

α-amylase enzyme = assay: α-Amylase enzyme inhibitory assay; format: biochemical; settings: 200 µg/mL
Procedure: An in vitro α-amylase enzyme inhibitory assay was performed by the standard protocol. Four milligrams per 1 mL of sample was prepared in DMSO. In each well of a 96-well plate, synthetic compounds were added to a final concentration of 200 µg/mL. To this, 15 μL phosphate buffer, […] α-amylase enzyme and 40 μL starch solution were added stepwise. The microplate was incubated at 50 °C for 30 min. […] The formula used to calculate the percent enzyme inhibition is:% Enzyme inhibition = [(As − An) ÷ (Ab − An] × 100
As = sample’s absorbance; An = negative’s absorbance; Ab = blank’s absorbance

| Structure (SMILES) | Total reducing power (TRP) [1] [µg/AAE] | IC50 (raw macrophages) [µM] | Paw thickness ([2]; 0 h after carrageenan injection) | Paw thickness ([2]; 2 h after carrageenan injection) | Paw thickness ([2]; 4 h after carrageenan injection) | Paw thickness ([2]; 6 h after carrageenan injection) | Total antioxidant capacity (TAC) [3] [µg/AAE] | % inhibition of α-amylase enzyme (α-amylase enzyme) [%] |
| --- | --- | --- | --- | --- | --- | --- | --- | --- |
| c1ccc2c(c1)CCCN2CN1CCCCC1 [SF1, 1-(Piperidine-1-ylmethyl) 1,2,3,4-tetrahahydroquinoline] | 33.22 ± 1.5 | 6.23 ± 0.01 | 2.06 ± 0.07 | 2.13 ± 0.03 | 2.18 ± 0.06 | 2.25 ± 0.05 | – | – |
| CN1CCN(CN2CCCc3ccccc32)CC1 [SF5] | 104.7 ± 1.9 | – | – | – | – | – | 285.46 ± 2.1 | 97.37 |
| c1ccc(N(CN2CCCc3ccccc32)c2ccccc2)cc1 [SF7, N-((3,4-dihydroquinolin-1(2H)-yl)methyl)-N-phenylaniline] | 103.18 ± 2.4 | – | – | – | – | – | 242.77 ± 2.31 | 88.67 |
